{"source": "patent US12077503B2", "about": "“Substituted cyclic amides and their use as herbicides” (FMC CORPORATION, priority 2015, dated 2024)", "format_in_all_cases": "in vivo", "key": {"[1]": {"system": "ivy-leaved morning glory (Ipomoea hederacea)", "assay": "Test G Pre-Emergence Protocol", "conditions": "Ipomoea, pre-emergence, 312 h, evaluated after 13 days", "procedure,_shortened": "(§1)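 Pre-emergence spray, 15.625/62.5/250 g/ha, vehicle acetone:water 50:50 + 0.5% Tween 20, applied 1 d after sowing. Glasshouse 24/16° C, 14 h light, 65% RH, watered twice daily. Visual damage rating at 13 d, 0–100 scale.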"}, "[2]": {"system": "barnyardgrass (Echinochloa crus-galli)", "assay": "Test G Pre-Emergence Protocol", "conditions": "Echinochloa crus-galli, pre-emergence, 312 h, evaluated after 13 days", "procedure,_shortened": "as §1"}, "corn (Zea mays) [3]": {"system": "corn (Zea mays)", "assay": "Test G Pre-Emergence Protocol", "conditions": "Zea mays, pre-emergence, 312 h, evaluated after 13 days", "procedure,_shortened": "as §1"}, "[4]": {"system": "redroot pigweed (Amaranthus retroflexus)", "assay": "Test G Pre-Emergence Protocol", "conditions": "Amaranthus retroflexus, pre-emergence, 312 h, evaluated after 13 days", "procedure,_shortened": "as §1"}, "[5]": {"system": "velvetleaf (Abutilon theophrasti)", "assay": "Test G Pre-Emergence Protocol", "conditions": "Abutilon theophrasti, pre-emergence, 312 h, evaluated after 13 days", "procedure,_shortened": "as §1"}, "[6]": {"system": "giant foxtail (Setaria faberi)", "assay": "Test G Pre-Emergence Protocol", "conditions": "Setaria faberi, pre-emergence, 312 h, evaluated after 13 days", "procedure,_shortened": "as §1"}, "[7]": {"system": "ivy-leaved morning glory (Ipomoea hederacea)", "assay": "Test G Post-Emergence Protocol", "conditions": "Ipomoea, post-emergence, 312 h", "procedure,_shortened": "(§2)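 A glasshouse post-emergence test: 8-day-old plants sprayed at 15.625, 62.5 or 250 g/ha, then grown at 24/16 °C day/night with 14 h light and 65% humidity. Damage rated 13 days later, 0–100.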"}, "[8]": {"system": "barnyardgrass (Echinochloa crus-galli)", "assay": "Test G Post-Emergence Protocol", "conditions": "Echinochloa crus-galli, post-emergence, 312 h", "procedure,_shortened": "as §2"}, "corn (Zea mays) [9]": {"system": "corn (Zea mays)", "assay": "Test G Post-Emergence Protocol", "conditions": "Zea mays, post-emergence, 312 h", "procedure,_shortened": "as §2"}, "[10]": {"system": "redroot pigweed (Amaranthus retroflexus)", "assay": "Test G Post-Emergence Protocol", "conditions": "Amaranthus retroflexus, post-emergence, 312 h", "procedure,_shortened": "as §2"}, "[11]": {"system": "velvetleaf (Abutilon theophrasti)", "assay": "Test G Post-Emergence Protocol", "conditions": "Abutilon theophrasti, post-emergence, 312 h", "procedure,_shortened": "as §2"}, "[12]": {"system": "giant foxtail (Setaria faberi)", "assay": "Test G Post-Emergence Protocol", "conditions": "Setaria faberi, post-emergence, 312 h", "procedure,_shortened": "as §2"}}}
{"smiles": "CN1C[C@@H](c2ccc(C(F)(F)F)cc2)[C@H](C(=O)Nc2ccc(Cl)cc2F)C1=O", "note": "(racemic) [Compound 1602]", "values": [{"measurement": "pest or weed control at 15.625 g/ha", "setting": "[1]; 15.625 g ai/ha, read-out: Morning-glory, Ivy-leaved damage rating (100=total damage to plant; 0=no damage to plant)", "result": 0, "unit": "%"}, {"measurement": "pest or weed control at 62.5 g/ha", "setting": "[1]; 62.5 g ai/ha, 100=total damage to plant, 0=no damage to plant, read-out: plant damage rating, Morningglory, Ivy-leaved", "result": 0, "unit": "%"}, {"measurement": "pest or weed control at 250 g/ha", "setting": "[1]; 250 g ai/ha, read-out: Morningglory, Ivy-leaved damage rating (100=total damage to plant; 0=no damage to plant)", "result": 0, "unit": "%"}, {"measurement": "pest or weed control at 15.625 g/ha", "setting": "[2]; 15.625 g ai/ha, read-out: Barnyard grass damage rating (100=total damage to plant; 0=no damage to plant)", "result": 0, "unit": "%"}, {"measurement": "pest or weed control at 62.5 g/ha", "setting": "[2]; 62.5 g ai/ha, 100=total damage to plant, 0=no damage to plant, read-out: plant damage rating, Barnyardgrass", "result": 0, "unit": "%"}, {"measurement": "pest or weed control at 250 g/ha", "setting": "[2]; 250 g ai/ha, read-out: Barnyardgrass damage rating (100=total damage to plant; 0=no damage to plant)", "result": 40, "unit": "%"}, {"measurement": "plant injury at 15.625 g/ha", "setting": "corn (Zea mays) [3]; 15.625 g ai/ha, read-out: Corn damage rating (100=total damage to plant; 0=no damage to plant)", "result": 0, "unit": "%"}, {"measurement": "plant injury at 62.5 g/ha", "setting": "corn (Zea mays) [3]; 62.5 g ai/ha, 100=total damage to plant, 0=no damage to plant, read-out: plant damage rating, Corn", "result": 0, "unit": "%"}, {"measurement": "plant injury at 250 g/ha", "setting": "corn (Zea mays) [3]; 250 g ai/ha, read-out: Corn damage rating (100=total damage to plant; 0=no damage to plant)", "result": 0, "unit": "%"}, {"measurement": "pest or weed control at 15.625 g/ha", "setting": "[4]; 15.625 g ai/ha, read-out: Pigweed, Redroot damage rating (100=total damage to plant; 0=no damage to plant)", "result": 0, "unit": "%"}, {"measurement": "pest or weed control at 62.5 g/ha", "setting": "[4]; 62.5 g ai/ha, 100=total damage to plant, 0=no damage to plant, read-out: plant damage rating, Pigweed, Redroot", "result": 30, "unit": "%"}, {"measurement": "pest or weed control at 250 g/ha", "setting": "[4]; 250 g ai/ha, read-out: Pigweed, Redroot damage rating (100=total damage to plant; 0=no damage to plant)", "result": 40, "unit": "%"}, {"measurement": "pest or weed control at 15.625 g/ha", "setting": "[5]; 15.625 g ai/ha, read-out: Velvetleaf damage rating (100=total damage to plant; 0=no damage to plant)", "result": 0, "unit": "%"}, {"measurement": "pest or weed control at 62.5 g/ha", "setting": "[5]; 62.5 g ai/ha, 100=total damage to plant, 0=no damage to plant, read-out: plant damage rating, Velvetleaf", "result": 0, "unit": "%"}, {"measurement": "pest or weed control at 250 g/ha", "setting": "[5]; 250 g ai/ha, read-out: Velvetleaf damage rating (100=total damage to plant; 0=no damage to plant)", "result": 10, "unit": "%"}, {"measurement": "pest or weed control at 15.625 g/ha", "setting": "[6]; 15.625 g ai/ha, read-out: Foxtail, Giant damage rating (100=total damage to plant; 0=no damage to plant)", "result": 0, "unit": "%"}, {"measurement": "pest or weed control at 62.5 g/ha", "setting": "[6]; 62.5 g ai/ha, 100=total damage to plant, 0=no damage to plant, read-out: plant damage rating, Foxtail, Giant", "result": 30, "unit": "%"}, {"measurement": "pest or weed control at 250 g/ha", "setting": "[6]; 250 g ai/ha, read-out: Foxtail, Giant damage rating (100=total damage to plant; 0=no damage to plant)", "result": 70, "unit": "%"}, {"measurement": "pest or weed control at 15.625 g/ha", "setting": "[7]; 15.625 g ai/ha, evaluated after 13 days (100=total damage to plant; 0=no damage to plant), read-out: Morningglory, Ivy-leaved damage rating", "result": 10, "unit": "%"}, {"measurement": "pest or weed control at 62.5 g/ha", "setting": "[7]; 62.5 g ai/ha, evaluated after 13 days, read-out: Morningglory, Ivy-leaved damage rating (100=total damage to plant; 0=no damage to plant)", "result": 50, "unit": "%"}, {"measurement": "pest or weed control at 250 g/ha", "setting": "[7]; 250 g ai/ha, evaluated after 13 days, read-out: damage to plant, Morningglory, Ivy-leaved (100=total damage to plant; 0=no damage to plant)", "result": 50, "unit": "%"}, {"measurement": "pest or weed control at 15.625 g/ha", "setting": "[8]; 15.625 g ai/ha, evaluated after 13 days (100=total damage to plant; 0=no damage to plant), read-out: Barnyardgrass damage rating", "result": 0, "unit": "%"}, {"measurement": "pest or weed control at 62.5 g/ha", "setting": "[8]; 62.5 g ai/ha, evaluated after 13 days, read-out: Barnyardgrass damage rating (100=total damage to plant; 0=no damage to plant)", "result": 20, "unit": "%"}, {"measurement": "pest or weed control at 250 g/ha", "setting": "[8]; 250 g ai/ha, evaluated after 13 days, read-out: damage to plant, Barnyardgrass (100=total damage to plant; 0=no damage to plant)", "result": 40, "unit": "%"}, {"measurement": "plant injury at 15.625 g/ha", "setting": "corn (Zea mays) [9]; 15.625 g ai/ha, evaluated after 13 days (100=total damage to plant; 0=no damage to plant), read-out: Corn damage rating", "result": 0, "unit": "%"}, {"measurement": "plant injury at 62.5 g/ha", "setting": "corn (Zea mays) [9]; 62.5 g ai/ha, evaluated after 13 days, read-out: Corn damage rating (100=total damage to plant; 0=no damage to plant)", "result": 0, "unit": "%"}, {"measurement": "plant injury at 250 g/ha", "setting": "corn (Zea mays) [9]; 250 g ai/ha, evaluated after 13 days, read-out: damage to plant, Corn (100=total damage to plant; 0=no damage to plant)", "result": 20, "unit": "%"}, {"measurement": "pest or weed control at 15.625 g/ha", "setting": "[10]; 15.625 g ai/ha, evaluated after 13 days (100=total damage to plant; 0=no damage to plant), read-out: Pigweed, Redroot damage rating", "result": 0, "unit": "%"}, {"measurement": "pest or weed control at 62.5 g/ha", "setting": "[10]; 62.5 g ai/ha, evaluated after 13 days, read-out: Pigweed, Redroot damage rating (100=total damage to plant; 0=no damage to plant)", "result": 50, "unit": "%"}, {"measurement": "pest or weed control at 250 g/ha", "setting": "[10]; 250 g ai/ha, evaluated after 13 days, read-out: damage to plant, Pigweed, Redroot (100=total damage to plant; 0=no damage to plant)", "result": 70, "unit": "%"}, {"measurement": "pest or weed control at 15.625 g/ha", "setting": "[11]; 15.625 g ai/ha, evaluated after 13 days (100=total damage to plant; 0=no damage to plant), read-out: Velvetleaf damage rating", "result": 0, "unit": "%"}, {"measurement": "pest or weed control at 62.5 g/ha", "setting": "[11]; 62.5 g ai/ha, evaluated after 13 days, read-out: Velvetleaf damage rating (100=total damage to plant; 0=no damage to plant)", "result": 20, "unit": "%"}, {"measurement": "pest or weed control at 250 g/ha", "setting": "[11]; 250 g ai/ha, evaluated after 13 days, read-out: damage to plant, Velvetleaf (100=total damage to plant; 0=no damage to plant)", "result": 40, "unit": "%"}, {"measurement": "pest or weed control at 15.625 g/ha", "setting": "[12]; 15.625 g ai/ha, evaluated after 13 days (100=total damage to plant; 0=no damage to plant), read-out: Foxtail, Giant damage rating", "result": 0, "unit": "%"}, {"measurement": "pest or weed control at 62.5 g/ha", "setting": "[12]; 62.5 g ai/ha, evaluated after 13 days, read-out: Foxtail, Giant damage rating (100=total damage to plant; 0=no damage to plant)", "result": 60, "unit": "%"}, {"measurement": "pest or weed control at 250 g/ha", "setting": "[12]; 250 g ai/ha, evaluated after 13 days, read-out: damage to plant, Foxtail, Giant (100=total damage to plant; 0=no damage to plant)", "result": 80, "unit": "%"}]}
